Values after ≈ are worked out from the molar mass of the structure shown.
Key:
[1] = test system: Cladophialophora carrionii (CFP 00910); conditions: C. carrionii; PDA; 7 days, 37 °C; albendazole at ½ MIC
Protocol: (§3) At the end of the seven days of incubation at 37 °C, the plates were read visually. The aspect of the colonies supplemented with albendazole were compared to those of the positive melanin and inhibition melanin controls, to determine whether the color of the albendazole-supplemented cultures resembled the positive DHN-melanin or the melanin inhibition control. Pictures of the colonies were captured using a Canon EOS Rebel T7+ digital camera.

[2] = test system: Fonsecaea pedrosoi (CFP 00791); conditions: F. pedrosoi; PDA; 7 days, 37 °C; albendazole at ½ MIC
Protocol: as §3

[3] = test system: Rhinocladiela similis (CFP 00790); assay: Chequerboard synergism assay (FICI); assay type: cell-based; conditions: R. similis
Protocol: (§1) To assess the type of interaction between the hit drugs and the antifungal drugs most used in the treatment of CBM (itraconazole and terbinafine), the fractional inhibitory concentration index (FICI) was determined, which defines the type of interaction between drugs in combination as follows: synergism if FICI ≤ 0.5; indifference if 0.5 < FICI ≤ 4; and antagonism if FICI > 4 [39]. The FICI was obtained by the sum of the fractional inhibitory concentrations (FIC) or by the formula: (A/MIC(a) = FIC_A) + (B/MIC(b) = FIC_B) = FICI, where: A = MIC of the drug (a) in combination; MIC (a) = MIC of drug (a) alone; B = MIC of drug (b) in combination; and MIC (b) = MIC of drug (b) alone. The test was carried out using the chequerboard method, in which the two drugs were applied in a single well of a 96-well plate, so that in each of the wells there were different concentrations of the combinations between the substance and the antifungal agent (Figure S1). Drug dilutions were prepared following the methodology proposed by EUCAST, starting from a stock solution of the hit drug or antifungal drug 100× concentrated, according to the methodology described to determine the MIC [36]. Hit drug A/antifungal drug B serial microdilution preparations were performed following the above mentioned protocol, observing the final concentration in the wells after the addition of drugs and inoculum. […] Column 12 was reserved for drug B (itraconazole or terbinafine) susceptibility testing. Row H was reserved for the selected NCC substance. The other combined drug and substance concentrations were distributed between columns 2 and 11 in rows A to G. Drug concentrations ranged from 0.062 μM to 4 µM for itraconazole and terbinafine, and from 0.125 μM to 64 µM for the hit drug on the combination boards.

[4] = test system: Fonsecaea nubica (CFP 00912); assay: Chequerboard synergism assay (FICI); assay type: cell-based; conditions: F. nubica
Protocol: as §1

[5] = test system: Fonsecaea pedrosoi (CFP 00791); assay: Chequerboard synergism assay (FICI); assay type: cell-based; conditions: F. pedrosoi
Protocol: as §1

[6] = test system: Exophiala dermatitidis (ATCC 28869); assay: Chequerboard synergism assay (FICI); assay type: cell-based; conditions: E. dermatitidis
Protocol: as §1

[7] = test system: Exophiala heteromorpha (ATCC 28180); assay: Chequerboard synergism assay (FICI); assay type: cell-based; conditions: E. heteromorpha
Protocol: as §1

[8] = test system: Fonsecaea monophora (CFP 00911); assay: Chequerboard synergism assay (FICI); assay type: cell-based; conditions: F. monophora
Protocol: as §1

[9] = test system: Cladophialophora carrionii (CFP 00910); assay: Chequerboard synergism assay (FICI); assay type: cell-based; conditions: C. carrionii
Protocol: as §1

[10] = test system: Phialophora verrucosa (CFP 00937); assay: Chequerboard synergism assay (FICI); assay type: cell-based; conditions: P. verrucosa
Protocol: as §1

[11] = test system: Cladophialophora carrionii (CFP 00910); assay: Minimum fungicidal concentration determination; assay type: cell-based
Protocol: The MFC was determined as the lowest drug concentration without fungal growth on Sabouraud agar after five days of incubation at 35 °C.

[12] = test system: Rhinocladiela similis (CFP 00790); assay: Minimum fungicidal concentration determination; assay type: cell-based
Protocol: (§2) Minimum fungicidal concentration (MFC) was determined in triplicate by transferring a 5 μL aliquot from each well without fungal growth of the microdilution plates used for MIC determination, as described above, onto 2% glucose Sabouraud agar (Sigma Chemical Corporation). The MFC was determined as the lowest drug concentration without fungal growth on Sabouraud agar after five days of incubation at 35 °C. When the MFC/MIC ratio of a hit drug was 1 or 2, the substance was considered fungicidal against the pathogen. If this ratio was greater than 2, the hit drug was considered to be fungistatic.

[13] = test system: Fonsecaea nubica (CFP 00912); assay: Minimum fungicidal concentration determination; assay type: cell-based
Protocol: as §2

[14] = test system: Fonsecaea pedrosoi (CFP 00791); assay: Minimum fungicidal concentration determination; assay type: cell-based
Protocol: as §2

[15] = test system: Exophiala dermatitidis (ATCC 28869); assay: Minimum fungicidal concentration determination; assay type: cell-based
Protocol: as §2

[16] = test system: Exophiala heteromorpha (ATCC 28180); assay: Minimum fungicidal concentration determination; assay type: cell-based
Protocol: as §2

[17] = test system: Fonsecaea monophora (CFP 00911); assay: Minimum fungicidal concentration determination; assay type: cell-based
Protocol: as §2

[18] = test system: Phialophora verrucosa (CFP 00937); assay: Minimum fungicidal concentration determination; assay type: cell-based
Protocol: as §2

[19] = test system: CBM agents; assay: Chequerboard synergism assay, stated over all tested isolates; assay type: cell-based
Protocol: To assess the type of interaction between the hit drugs and the antifungal drugs most used in the treatment of CBM (itraconazole and terbinafine), the fractional inhibitory concentration index (FICI) was determined, which defines the type of interaction between drugs in combination as follows: synergism if FICI ≤ 0.5; indifference if 0.5 < FICI ≤ 4; and antagonism if FICI > 4 [39]. The FICI was obtained by the sum of the fractional inhibitory concentrations (FIC) or by the formula: (A/MIC(a) = FIC_A) + (B/MIC(b) = FIC_B) = FICI, where: A = MIC of the drug (a) in combination; MIC (a) = MIC of drug (a) alone; B = MIC of drug (b) in combination; and MIC (b) = MIC of drug (b) alone. The test was carried out using the chequerboard method, in which the two drugs were applied in a single well of a 96-well plate, so that in each of the wells there were different concentrations of the combinations between the substance and the antifungal agent (Figure S1). Drug dilutions were prepared following the methodology proposed by EUCAST, starting from a stock solution of the hit drug or antifungal drug 100× concentrated, according to the methodology described to determine the MIC [36]. Hit drug A/antifungal drug B serial microdilution preparations were performed following the above mentioned protocol, observing the final concentration in the wells after the addition of drugs and inoculum. […]

SMILES: CCCSc1ccc2nc(NC(=O)OC)[nH]c2c1 [Albendazole]
- melanin production [1]: did not observe a decrease in melanin production
- melanin production [2]: did not observe a decrease in melanin production
- FICI Albendazole + Itraconazole ([3]; combination with itraconazole): 0.62
- FICI Albendazole + Terbinafine ([3]; combination with terbinafine): 2
- FICI Albendazole + Itraconazole ([4]; combination with itraconazole): 1.25
- FICI Albendazole + Terbinafine ([4]; combination with terbinafine): 1.12
- FICI Albendazole + Itraconazole ([5]; combination with itraconazole): 1
- FICI Albendazole + Terbinafine ([5]; combination with terbinafine): 1.12
- FICI Albendazole + Itraconazole ([6]; combination with itraconazole): 1.06
- FICI Albendazole + Terbinafine ([6]; combination with terbinafine): 1.06
- FICI Albendazole + Itraconazole ([7]; combination with itraconazole): 1.03
- FICI Albendazole + Terbinafine ([7]; combination with terbinafine): 1.06
- FICI Albendazole + Itraconazole ([8]; combination with itraconazole): 1.50
- FICI Albendazole + Terbinafine ([8]; combination with terbinafine): 1.12
- FICI Albendazole + Itraconazole ([9]; combination with itraconazole): 1.06
- FICI Albendazole + Terbinafine ([9]; combination with terbinafine): 1.06
- FICI Albendazole + Itraconazole ([10]; combination with itraconazole): 1.125
- FICI Albendazole + Terbinafine ([10]; combination with terbinafine): 2.12
- MFC:MIC Ratio ([11]; C. carrionii): 8
- MFC ([11]; Cladophialophora carrionii): 20 µM (≈ 5.31 µg/mL)
- MFC [12]: > 80 µM
- MFC:MIC Ratio ([12]; R. similis): >64
- MFC:MIC Ratio ([13]; F. nubica): 64
- MFC ([13]; Fonsecaea nubica): 40 µM (≈ 10.6 µg/mL)
- MFC:MIC Ratio ([14]; F. pedrosoi): 1
- fungicidal or fungistatic (MFC/MIC ratio) ([14]; F. pedrosoi): fungicidal (When the MFC/MIC ratio of a hit drug was 1 or 2, the substance was considered fungicidal)
- MFC ([14]; Fonsecaea pedrosoi): 1.25 µM (≈ 0.332 µg/mL)
- MFC:MIC Ratio ([15]; E. dermatitidis): >32
- MFC ([15]; Exophiala dermatitidis, ATCC28869): > 80 µM
- MFC:MIC Ratio ([16]; E. heteromorpha): 32
- MFC ([16]; Exophiala heteromorpha, ATCC28180): 80 µM (≈ 21.2 µg/mL)
- MFC:MIC Ratio ([17]; F. monophora): 1
- fungicidal or fungistatic (MFC/MIC ratio) ([17]; F. monophora): fungicidal (When the MFC/MIC ratio of a hit drug was 1 or 2, the substance was considered fungicidal)
- MFC ([17]; Fonsecaea monophora): 0.625 µM (≈ 0.166 µg/mL)
- MFC:MIC Ratio ([18]; P. verrucosa): 64
- MFC ([18]; Phialophora verrucosa): 40 µM (≈ 10.6 µg/mL)
- type of interaction, albendazole with itraconazole [19]: indifferent
- type of interaction, albendazole with terbinafine [19]: indifferent

Source: paper PMC10381309 (Journal of Fungi, 2023)
